Assay results taken from US7709466B2, “Pyridazinone derivatives, methods for their production and their use as pharmaceuticals” (Sanofi-Aventis Deutschland GmbH, priority 2004, dated 2010).

What follows are compounds tested against GSK-3β (Homo sapiens, UniProt P49841) (assay: GSK-3β activity, AlphaScreen technology, determination of IC50-values). Conditions: human recombinant enzyme, primed glycogen synthase substrate peptide, 10 μM ATP, 60 min at room temperature, triplicate; read-out: GSK3β (μmol).
GSK-3β, sequence (P49841 whole entry): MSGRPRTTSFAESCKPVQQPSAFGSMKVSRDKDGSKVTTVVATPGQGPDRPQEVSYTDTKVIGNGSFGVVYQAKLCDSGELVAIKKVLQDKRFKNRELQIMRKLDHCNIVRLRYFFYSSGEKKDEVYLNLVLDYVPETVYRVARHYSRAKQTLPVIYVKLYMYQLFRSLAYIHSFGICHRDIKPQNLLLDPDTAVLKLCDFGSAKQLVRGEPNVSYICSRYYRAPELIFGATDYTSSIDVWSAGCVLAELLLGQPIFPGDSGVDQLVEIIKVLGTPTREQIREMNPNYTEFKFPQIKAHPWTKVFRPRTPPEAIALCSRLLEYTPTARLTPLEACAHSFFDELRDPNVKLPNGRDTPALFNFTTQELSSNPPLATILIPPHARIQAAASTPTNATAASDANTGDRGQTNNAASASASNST
Type: biochemical
Description: Functional Measurements for Determination of IC50-Values
GSK-3βGSK-β activity is measured using human recombinant GSK-β and a primed (pre-phosphorylated) substrate peptide (derived from glycogen synthase and containing the phosphorylation sites 3a, b, and c) on basis of the AlphaScreen technology in 384-well plate format (small volume plate, white, GREINER). In a final volume of 11 μl, 2 μl of compound (1 nM-[…] in kinase buffer, DMSO (dimethylsulfoxide) kept constant at 0.9%), 2 μl of GSK-βsolution (0.18 nM) and 2 μl of biot. phospho-glycogen synthase peptide (34 nM) in kinase buffer (20 mM Hepes, pH 7.4, 10 mM MgCl2, […] (ethylenediaminotetraacetate), 1 mM DTT (dithiotriol), 0.1 mg/ml BSA (bovine serum albumin), 10 μM ATP (adenosinetriphosphate)) are incubated at room temperature for 60 min.

SMILES | IC50
O=c1[nH]nc(-c2ccn[nH]2)cc1-c1cc2ccccc2[nH]1 [Example 147, 4-(1H-Indol-2-yl)-6-(2H-pyrazol-3-yl)-2H-pyridazin-3-one] | 2 µM
O=c1[nH]nc(-c2ccncc2)cc1-c1[nH]c2ccccc2c1C1CC1 [Example 118, 4-(3-Cyclopropyl-1H-indol-2-yl)-6-pyridin-4-yl-2H-pyridazin-3-one] | 0.011 µM
Cc1cc(-c2cc(-c3[nH]c4ccccc4c3-c3c[nH]c(=O)[nH]c3=O)c(=O)[nH]n2)cc(C)c1O [Example 176, 5-{2-[6-(4-Hydroxy-3,5-dimethyl-phenyl)-3-oxo-2,3-dihydro-pyridazin-4-yl]-1H-indol-3-yl}-1H-pyrimidine-2,4-dione] | 0.078 µM
CN(Cc1ccc2cc(-c3cc(-c4ccncc4)n[nH]c3=O)[nH]c2c1)C1CCN(C2CC2)CC1 [Example 89, 4-(6-{[(1-Cyclopropyl-piperidin-4-yl)-methyl-amino]-methyl}-1H-indol-2-yl)-6-pyridin-4-yl-2H-pyridazin-3-one] | 0.012 µM
O=c1[nH]nc(-c2ccncc2)cc1-c1[nH]c2ccccc2c1CN1CCOCC1 [Example 11, 4-(3-Morpholin-4-ylmethyl-1H-indol-2-yl)-6-pyridin-4-yl-2H-pyridazin-3-one] | 0.102 µM
CC(NC1CCN(C2CC2)CC1)c1ccc2cc(-c3cc(-c4ccncc4)n[nH]c3=O)[nH]c2c1 (stereo not shown) [Example 165, 4-{6-[1-(1-Cyclopropyl-piperidin-4-ylamino)-ethyl]-1H-indol-2-yl}-6-pyridin-4-yl-2H-pyridazin-3-one] | 0.018 µM
Cn1cc(-c2c(-c3cc(-c4ccncc4)n[nH]c3=O)[nH]c3ccccc23)cn1 [Example 133, 4-[3-(1-Methyl-1H-pyrazol-4-yl)-1H-indol-2-yl]-6-pyridin-4-yl-2H-pyridazin-3-one] | 0.007 µM

Further lines, results first:

IC50 | SMILES
0.021 µM | CN1CCN(Cc2ccc3cc(-c4cc(-c5cccc(O)c5)n[nH]c4=O)[nH]c3c2)CC1 [Example 156, 6-(3-Hydroxy-phenyl)-4-[6-(4-methyl-piperazin-1-ylmethyl)-1H-indol-2-yl]-2H-pyridazin-3-one]
0.018 µM | Cc1cc(-c2cc(-c3cc4ncccc4[nH]3)c(=O)[nH]n2)cc(C)c1O [Example 180, 6-(4-Hydroxy-3,5-dimethyl-phenyl)-4-(1H-pyrrolo[3,2-b]pyridin-2-yl)-2H-pyridazin-3-one]
1.5 µM | Cn1cc(-c2cc(-c3cc4ccccc4[nH]3)c(=O)[nH]n2)cn1 [Example 126, 4-(1H-Indol-2-yl)-6-(1-methyl-1H-pyrazol-4-yl)-2H-pyridazin-3-one]
0.004 µM | O=c1[nH]nc(-c2ccncc2)cc1-c1cc2ccc(CN3CCN(C4CC4)CC3)cc2[nH]1 [Example 65, 4-[6-(4-Cyclopropyl-piperazin-1-ylmethyl)-1H-indol-2-yl]-6-pyridin-4-yl-2H-pyridazin-3-one]
0.025 µM | O=c1[nH]nc(-c2ccncc2)cc1-c1[nH]c2ccccc2c1Cl [Example 26, 4-(3-Chloro-1H-indol-2-yl)-6-pyridin-4-yl-2H-pyridazin-3-one]
0.014 µM | O=c1[nH]nc(-c2ccncc2)cc1-c1cc2ccc(CNC3CC3)cc2[nH]1 [Example 87, 4-(6-Cyclopropylaminometh-yl-1H-indol-2-yl)-6-pyridin-4-yl-2H-pyridazin-3-one]
0.007 µM | COc1ccc2[nH]c(-c3cc(-c4ccncc4)n[nH]c3=O)cc2n1 [Example 116, 4-(5-Methoxy-1H-pyrrolo[3,2-b]pyridin-2-yl)-6-pyridin-4-yl-2H-pyridazin-3-one]
0.01 µM | O=C(O)[C@@H]1CCCN1Cc1ccc2cc(-c3cc(-c4ccncc4)n[nH]c3=O)[nH]c2c1 [Example 74, (S)-1-[2-(3-Oxo-6-pyridin-4-yl-2,3-dihydro-pyridazin-4-yl)-1H-indol-6-ylmethyl]-pyrrolidine-2-carboxylic acid]
0.59 µM | Cc1cc(-c2cc(-c3cc4ccccc4[nH]3)c(=O)[nH]n2)cc(C)c1O [Example 6, 6-(4-Hydroxy-3,5-dimethyl-phenyl)-4-(1H-indol-2-yl)-2H-pyridazin-3-one]
